According to BindingDB's records for doi:10.1021/jm00015a003 (Warner-Lambert, 1995):
Counter-ions that a name gives are not always drawn. Numbered stars: 1 amine (or outer) side, 2 acyl side, 3 side chain; on linkers, the order of the positions; unused ones are H or OH. Square brackets hold non-standard residues; d marks the D form. Peptide text beside a SMILES is read from it. * marks the point of attachment. Dip = N[C@H](C(=O)O)C(c1ccccc1)c1ccccc1; CO = O=C([*:1])[*:2]; Tfa = O=C(C(F)(F)F)*

Assay: Inhibition of ET-1 stimulated arachidonic acid release in rabbit renal vascular smooth muscle cells

| IC50 [nM] | Structure (SMILES) |
| --- | --- |
| 1700 | CC[C@H](C)[C@H](NC(=O)[C@H](CC(=O)O)NC(=O)[C@H](CC(C)C)NC(=O)[C@@H](NC(=O)C(F)(F)F)C(c1ccccc1)c1ccccc1)C(=O)N[C@H](C(=O)N[C@@H](Cc1c[nH]c2ccccc12)C(=O)O)[C@@H](C)CC [(S)-N-((1S,2S)-1-{(1S,2S)-1-[(S)-1-Carboxy-2-(1H-indol-3-yl)-ethylcarbamoyl]-2-methyl-butylcarbamoyl}-2-methyl-butyl)-3-{(S)-2-[(S)-3,3-diphenyl-2-(2,2,2-trifluoro-acetylamino)-propionylamino]-4-methyl-pentanoylamino}-succinamic acid] (Tfa-[Dip]LDIIW-OH) |
| 280 | CC[C@H](C)[C@H](NC(=O)[C@H](CC(=O)O)NC(=O)[C@H](CC(C)C)NC(=O)[C@@H](NC(=O)NC)C(c1ccccc1)c1ccccc1)C(=O)N[C@H](C(=O)N[C@@H](Cc1c[nH]c2ccccc12)C(=O)O)[C@@H](C)CC [(S)-N-((1S,2S)-1-{(1S,2S)-1-[(S)-1-Carboxy-2-(1H-indol-3-yl)-ethylcarbamoyl]-2-methyl-butylcarbamoyl}-2-methyl-butyl)-3-{(S)-4-methyl-2-[(S)-2-(3-methyl-ureido)-3,3-diphenyl-propionylamino]-pentanoylamino}-succinamic acid] ({NHMe-CO}-[Dip]LDIIW-OH) |
